Assay results as given in ChEMBL document CHEMBL3885861, “Open TG-GATES”.

Species: Rattus norvegicus
Assay: Open TG-GATES - Regimen: Daily Repeat
Format: toxicity, organism-based, Sprague-Dawley
Design: regimen Daily Repeat, gender Male, age 6 weeks
Conditions: in vivo, po, route gavage; for gamma-GTP / ALP / ALT / AST / BUN / CRE / Ca / DBIL / GLC / IP / K / LDH / Na / PL / RALB / TBIL / TC / TG / TP: tissue Plasma; for APTT / Bas / Eos / Fbg / Hb / Ht / Lym / MCH / MCHC / MCV / Mono / Neu / PT / Plat / RBC / Ret / WBC: tissue Blood; for KIDNEY_L / KIDNEY_R / KIDNEY_TOTAL: tissue Kidney; for LIVER: tissue Liver
[1] = 30 mg/kg, 72 h, dose level Middle, time 3 day
[2] = 30 mg/kg, […], dose level Middle, time 7 day
[3] = 30 mg/kg, […], dose level Middle, time 14 day
[4] = 30 mg/kg, […], dose level Middle, time 28 day
[5] = 100 mg/kg, 72 h, dose level High, time 3 day
[6] = 100 mg/kg, […], dose level High, time 7 day
[7] = 100 mg/kg, […], dose level High, time 14 day
[8] = 100 mg/kg, […], dose level High, time 28 day

## CSc1ccc2c(c1)N(CCC1CCCCN1C)c1ccccc1S2 (configuration not stated) [THIORIDAZINE]
10 mg/kg, […], dose level Low, time 28 day
  gamma-GTP: 1.4 IU/L
[1]
  TERMINAL_BW: 234.2 g
  APTT: 15.8 s
  Bas: 0%
  Eos: 1%
  Fbg: 219.8 mg/dL
  Hb: 14.1 g/dL
  Ht: 42.2%
  Lym: 79.6%
  MCH: 21.7 pg
  MCHC: 33.4%
  MCV: 64.9 fL
  Mono: 7%
  Neu: 12.6%
  PT: 11.9 s
  Plat: 110.7 x10_4/uL
  RBC: 651 x10_4/ul
  Ret: 8%
  WBC: 122.3 x10_2/uL
  KIDNEY_L: 1 g
  KIDNEY_R: 1.1 g
  KIDNEY_TOTAL: 2.1 g
  LIVER: 12.3 g
  ALP: 1002.8 IU/L
  ALT: 44 IU/L
  AST: 66.2 IU/L
  BUN: 19 mg/dL
  CRE: 0.5 mg/dL
  Ca: 11.3 mg/dL
  DBIL: 0.012 mg/dL
  GLC: 188 mg/dL
  IP: 9.3 mg/dL
  K: 4.9 meq/L
  LDH: 88.6 IU/L
  Na: 139 meq/L
  PL: 176.2 mg/dL
  RALB: 4.1 g/dL
  TBIL: 0.3 mg/dL
  TC: 92 mg/dL
  TG: 105.6 mg/dL
  TP: 6 g/dL
  gamma-GTP: 1.6 IU/L
[2]
  TERMINAL_BW: 271.1 g
  APTT: 15.4 s
  Bas: 0%
  Eos: 0.6%
  Fbg: 235.6 mg/dL
  Hb: 14.9 g/dL
  Ht: 44.8%
  Lym: 82.4%
  MCH: 21.1 pg
  MCHC: 33.2%
  MCV: 63.6 fL
  Mono: 5.8%
  Neu: 11%
  PT: 11.9 s
  RBC: 705.6 x10_4/ul
  Ret: 5.7%
  WBC: 139.8 x10_2/uL
  KIDNEY_L: 1.2 g
  KIDNEY_R: 1.2 g
  KIDNEY_TOTAL: 2.3 g
  LIVER: 13.7 g
  ALP: 818.4 IU/L
  ALT: 37.4 IU/L
  AST: 64.2 IU/L
  BUN: 17.8 mg/dL
  CRE: 0.5 mg/dL
  Ca: 11.3 mg/dL
  DBIL: 0.008 mg/dL
  GLC: 183.8 mg/dL
  IP: 8.6 mg/dL
  K: 4.8 meq/L
  LDH: 84.8 IU/L
  Na: 138.6 meq/L
  PL: 174 mg/dL
  RALB: 4.1 g/dL
  TBIL: 0.3 mg/dL
  TC: 88.4 mg/dL
  TG: 124.8 mg/dL
  TP: 6.1 g/dL
  gamma-GTP: 1.8 IU/L
[3]
  TERMINAL_BW: 301.4 g
  APTT: 16.2 s
  Bas: 0%
  Eos: 1%
  Fbg: 224.8 mg/dL
  Hb: 14.5 g/dL
  Ht: 41%
  Lym: 76.8%
  MCH: 22.1 pg
  MCHC: 37.1%
  MCV: 59.7 fL
  Mono: 8.4%
  Neu: 14.4%
  PT: 11.6 s
  Plat: 101.3 x10_4/uL
  RBC: 685.8 x10_4/ul
  Ret: 3.8%
  WBC: 148.2 x10_2/uL
  KIDNEY_L: 1.3 g
  KIDNEY_R: 1.3 g
  KIDNEY_TOTAL: 2.5 g
  LIVER: 14 g
  ALP: 731.4 IU/L
  ALT: 34.6 IU/L
  AST: 65.8 IU/L
  BUN: 16.4 mg/dL
  CRE: 0.5 mg/dL
  Ca: 10.5 mg/dL
  DBIL: 0.02 mg/dL
  GLC: 179.2 mg/dL
  IP: 7.9 mg/dL
  K: 4.8 meq/L
  LDH: 103.2 IU/L
  Na: 139.4 meq/L
  PL: 159.4 mg/dL
  RALB: 4.1 g/dL
  TBIL: 0.3 mg/dL
  TC: 77.6 mg/dL
  TG: 139.8 mg/dL
  TP: 6.2 g/dL
  gamma-GTP: 1 IU/L
[4]
  TERMINAL_BW: 394 g
  APTT: 18 s
  Bas: 0%
  Eos: 1%
  Fbg: 237.2 mg/dL
  Hb: 15.5 g/dL
  Ht: 46.8%
  Lym: 83%
  MCH: 19.6 pg
  MCHC: 33.3%
  MCV: 58.9 fL
  Mono: 5.8%
  PT: 11.9 s
  Plat: 106.6 x10_4/uL
  RBC: 795.4 x10_4/ul
  Ret: 5.4%
  WBC: 161 x10_2/uL
  KIDNEY_L: 1.4 g
  KIDNEY_R: 1.5 g
  KIDNEY_TOTAL: 2.9 g
  LIVER: 17.9 g
  ALP: 625.2 IU/L
  ALT: 39.8 IU/L
  AST: 66.2 IU/L
  BUN: 20.2 mg/dL
  CRE: 0.6 mg/dL
  Ca: 11 mg/dL
  DBIL: 0.002 mg/dL
  GLC: 183.2 mg/dL
  IP: 7.3 mg/dL
  K: 4.2 meq/L
  LDH: 152.2 IU/L
  Na: 140.2 meq/L
  PL: 159.4 mg/dL
  RALB: 4.2 g/dL
  TBIL: 0.3 mg/dL
  TC: 77.4 mg/dL
  TG: 122.6 mg/dL
  TP: 6.4 g/dL
  gamma-GTP: 1.6 IU/L
[5]
  TERMINAL_BW: 219.1 g
  APTT: 15.9 s
  Bas: 0%
  Eos: 1%
  Fbg: 196.2 mg/dL
  Hb: 13.9 g/dL
  Ht: 41.9%
  Lym: 81.4%
  MCH: 21.4 pg
  MCHC: 33.2%
  MCV: 64.4 fL
  Mono: 5.4%
  Neu: 12.2%
  PT: 11.9 s
  Plat: 117.8 x10_4/uL
  RBC: 651.2 x10_4/ul
  Ret: 6.1%
  WBC: 136.4 x10_2/uL
  KIDNEY_L: 1 g
  KIDNEY_R: 1 g
  KIDNEY_TOTAL: 2 g
  LIVER: 12.2 g
  ALP: 887.2 IU/L
  ALT: 40 IU/L
  AST: 63.2 IU/L
  BUN: 19.4 mg/dL
  CRE: 0.5 mg/dL
  Ca: 10.9 mg/dL
  DBIL: 0.062 mg/dL
  GLC: 187.6 mg/dL
  IP: 9.4 mg/dL
  K: 4.5 meq/L
  LDH: 158.8 IU/L
  Na: 139.8 meq/L
  PL: 164 mg/dL
  RALB: 4 g/dL
  TBIL: 0.2 mg/dL
  TC: 84 mg/dL
  TG: 92.4 mg/dL
  TP: 5.9 g/dL
  gamma-GTP: 1.6 IU/L
[6]
  TERMINAL_BW: 252.6 g
  APTT: 16.5 s
  Bas: 0%
  Eos: 0.2%
  Fbg: 213 mg/dL
  Hb: 14.3 g/dL
  Ht: 43.2%
  Lym: 80%
  MCH: 21.3 pg
  MCHC: 33.1%
  MCV: 64.2 fL
  Mono: 7.6%
  Neu: 12%
  PT: 12.3 s
  Plat: 98.4 x10_4/uL
  RBC: 672 x10_4/ul
  Ret: 4.6%
  WBC: 144.8 x10_2/uL
  KIDNEY_L: 1.2 g
  KIDNEY_R: 1.2 g
  KIDNEY_TOTAL: 2.3 g
  LIVER: 12.3 g
  ALP: 928.2 IU/L
  ALT: 34.2 IU/L
  AST: 64 IU/L
  BUN: 16 mg/dL
  CRE: 0.5 mg/dL
  Ca: 11.2 mg/dL
  DBIL: 0.008 mg/dL
  GLC: 199.8 mg/dL
  IP: 9.7 mg/dL
  K: 4.6 meq/L
  LDH: 100.2 IU/L
  Na: 141.6 meq/L
  PL: 166.8 mg/dL
  RALB: 3.8 g/dL
  TBIL: 0.4 mg/dL
  TC: 79 mg/dL
  TG: 132.4 mg/dL
  TP: 5.7 g/dL
  gamma-GTP: 1.4 IU/L
[7]
  TERMINAL_BW: 299.8 g
  APTT: 17.8 s
  Bas: 0%
  Eos: 0.8%
  Fbg: 242.8 mg/dL
  Hb: 15.2 g/dL
  Ht: 45.7%
  Lym: 75%
  MCH: 20.8 pg
  MCHC: 33.3%
  MCV: 62.5 fL
  Mono: 6%
  Neu: 18.2%
  PT: 11.9 s
  Plat: 112.1 x10_4/uL
  RBC: 733.4 x10_4/ul
  Ret: 4.4%
  WBC: 145.8 x10_2/uL
  KIDNEY_L: 1.3 g
  KIDNEY_R: 1.3 g
  KIDNEY_TOTAL: 2.6 g
  LIVER: 13.6 g
  ALP: 741.8 IU/L
  ALT: 30.4 IU/L
  AST: 61.2 IU/L
  BUN: 16.4 mg/dL
  CRE: 0.6 mg/dL
  Ca: 10.9 mg/dL
  DBIL: 0.02 mg/dL
  GLC: 178.2 mg/dL
  IP: 9.2 mg/dL
  K: 5.2 meq/L
  LDH: 189 IU/L
  Na: 142.8 meq/L
  PL: 152.2 mg/dL
  RALB: 4 g/dL
  TBIL: 0.4 mg/dL
  TC: 80.2 mg/dL
  TG: 83.4 mg/dL
  TP: 6.1 g/dL
  gamma-GTP: 1.4 IU/L
[8]
  TERMINAL_BW: 349.4 g
  APTT: 17.7 s
  Bas: 0%
  Eos: 0.6%
  Fbg: 225.4 mg/dL
  Hb: 15.6 g/dL
  Ht: 46.6%
  Lym: 80.4%
  MCH: 19.3 pg
  MCHC: 33.4%
  MCV: 57.7 fL
  Mono: 5.6%
  Neu: 13.8%
  PT: 12.5 s
  Plat: 92.7 x10_4/uL
  RBC: 808.8 x10_4/ul
  Ret: 2.5%
  WBC: 142.8 x10_2/uL
  KIDNEY_L: 1.4 g
  KIDNEY_R: 1.4 g
  KIDNEY_TOTAL: 2.8 g
  LIVER: 15.1 g
  ALP: 742.4 IU/L
  ALT: 35.4 IU/L
  AST: 55.8 IU/L
  BUN: 18.6 mg/dL
  CRE: 0.6 mg/dL
  Ca: 10.7 mg/dL
  DBIL: 0.006 mg/dL
  GLC: 176.4 mg/dL
  IP: 7.7 mg/dL
  K: 4.9 meq/L
  LDH: 115.4 IU/L
  Na: 142.6 meq/L
  PL: 160 mg/dL
  RALB: 4.1 g/dL
  TBIL: 0.2 mg/dL
  TC: 80.2 mg/dL
  TG: 111.4 mg/dL
  TP: 6.4 g/dL
  gamma-GTP: 1.6 IU/L
